According to patent US20230355631A1, “PROCESS FOR IMPROVING FLUIDITY OF PALBOCICLIB ISETHIONATE AND COMPOSITION” (NANJING GRITPHARMA CO., LTD., priority 2020, published 2023):

Assay: Properties of the granules / powder mix (angle of repose, bulk density, tap density, compression index)
Type: physicochemical
Conditions: bulk drug powder
Procedure: With reference to Example 7, 5 batches of samples 7-1, 7-2, 7-3, 7-4, and 7-5 were prepared by a capsule filling process after granules were prepared by dry granulation at different press roll pressures (a GL5-50 dry granulation machine with a 2.0 mm primary granulation sieve and a 1.0 mm secondary granulation sieve was used), and properties of the granules (including angle of repose, bulk density, and tap density), content uniformity of finished products, and other indexes were investigated separately. […] According to requirements of pharmacopoeia, the release rate of the samples is equal to or greater than 80% (Q) of the labelled amount in a medium with a pH of 1.2 within 30 minutes. Thus, the release rate of the various batches of samples (7-1, 7-2, 7-3, 7-4, and 7-5) was investigated in a medium with a pH of 1.2.
The palbociclib isethionate has poor fluidity and is a loose powder. […] Especially when capsules are filled in commercial batches in a large scale, the problem of difficulty in automatic filling at high speed will be caused due to poor fluidity of the powder. Moreover, the filled capsules have great differences in loading capacity, so that the content uniformity and the product quality are unqualified. […]

CC(=O)c1c(C)c2cnc(Nc3ccc(N4CCNCC4)cn3)nc2n(C2CCCC2)c1=O.O=S(=O)(O)CCO [palbociclib isethionate]
Fluidity of the raw material: poor fluidity
